Results: patent US5013554A, “Oral pharmaceutical compositions containing dextrophan salts” (Prodotti Formenti s.r.l., priority 1988, dated 1991)
Structures can show the parent of a compound that is named as a salt.

Columns and labels:
[1] = pharmacokinetic study on guinea pigs under urethane anaesthesia, oral administration of dextrorphan citrate and tartrate; plasma dextrorphan by HPLC after β-glucuronidase hydrolysis; format: in vivo
Experimental: The results from a pharmacokinetic study effected on guinea pigs under urethane anesthaesia, to which dextrorphan citrate and tartrate had been administered by the oral route, are reported hereinbelow in order to show the good bioavailability of dextrorphan salts.
Dextrorphan dosages were measured by a high pressure liquid chromatography method.
The plasma samples were subjected, before the extraction, to enzymatic hydrolysis with β-glucuronidase, according to the method reported by T.EAST and D.DYE (Journal of Chromatography Biomedical Applications 388, 99-112, 1985).
After hydrolysis, plasma samples were alkalinized with sodium carbonate and extracted with benzene; benzene was re-extracted with 0.5 ml of 0.1 NHCl and 100 mcl were chromatographed under the following conditions:
COLUMN: Lichrosorb RP Select B Merck 5 λ, 25 cm ×4 mm inn. d.
MOBILE PHASE: Octanesulphonic acid sodium salt 0.01M solution in water. Acetonitrile mixture (68-32% ). The solution was then buffered to pH 3 with phosphoric acid.
DETECTOR: F 1000 MERCK HITACHI Fluorimeter exc.=280 nm; em.=310 nm

[2] = background; cited from earlier work
[3] = background; cited from earlier work; remark: listed apart in the source
opiaceous receptors = settings: background; cited from earlier work
[4] = background; compared with dextromethorphan; cited from earlier work
[5] = previously reported; cited from earlier work

SMILES | oral absorption ([1]; in words) | concentration at 0.25 h ([1]; guinea pig, plasma, po, Table 2 (dextrorphan tartrate by order of b16), 15 minutes, read-out: Dextrorphan hematic levels) | concentration at 0.5 h ([1]; guinea pig, plasma, po, Table 2 (dextrorphan tartrate by order of b16), 30 minutes, read-out: Dextrorphan hematic levels) | concentration at 1 h ([1]; guinea pig, plasma, po, Table 2 (dextrorphan tartrate by order of b16), 60 minutes, read-out: Dextrorphan hematic levels) | concentration at 2 h ([1]; guinea pig, plasma, po, Table 2 (dextrorphan tartrate by order of b16), 120 minutes, read-out: Dextrorphan hematic levels) | concentration at 3 h ([1]; guinea pig, plasma, po, Table 2 (dextrorphan tartrate by order of b16), 180 minutes, read-out: Dextrorphan hematic levels) | concentration at 5 h ([1]; guinea pig, plasma, po, Table 2 (dextrorphan tartrate by order of b16), 300 minutes, read-out: Dextrorphan hematic levels) | antitussive action [2] | analgesic activity [3] | affinity to the opiaceous receptors (opiaceous receptors) | toxicity [4] | use by the oral route [5]
CN1CC[C@@]23CCCC[C@@H]2[C@@H]1Cc1ccc(O)cc13 [Dextrorphan citrate] | effectively absorbed | – | – | – | – | – | – | – | – | – | – | –
CN1CC[C@@]23CCCC[C@@H]2[C@@H]1Cc1ccc(O)cc13 [Dextrorphan] | – | 0.01 µg/mL | 0.47 µg/mL | 2.5 µg/mL | 3.8 µg/mL | 3 µg/mL | 3.8 µg/mL | remarkable antitussive action | lack of analgesic activity | lack of analgesic activity and of affinity to the opiaceous receptors | very low toxicity, even lower than that of dextromethorphan | not to be conveniently used by the oral route
